Assay results taken from ChEMBL document CHEMBL3286339, “Synthesis and in vivo SAR study of indolin-2-one-based multi-targeted inhibitors as potential anticancer agents” (Eur J Med Chem, 2014).
pIC50, pKi: −log10 of the molar value. The source made the active and inactive calls. The calls are words filed in the database; no cut-off is given here.

Experiments:
[1] = target: T1, Fibroblast growth factor receptor 3 (Homo sapiens, UniProt P22607); settings: 1 uM
Description: Inhibition of FGFR3 (unknown origin) at 1 uM relative to control

NCI-H526 = test: Antiproliferative activity against human NCI-H526 cells after 72 hrs by MTT assay; assay type: functional, cell-based; settings: NCI-H526, 72 h
[2] = target: T2, ALK tyrosine kinase receptor (Homo sapiens, UniProt Q9UM73); test: Binding affinity to ALK (unknown origin)
[3] = target: T3, Proto-oncogene tyrosine-protein kinase receptor Ret (Homo sapiens, UniProt P07949); settings: 1 uM
T3 sequence (P07949 whole entry): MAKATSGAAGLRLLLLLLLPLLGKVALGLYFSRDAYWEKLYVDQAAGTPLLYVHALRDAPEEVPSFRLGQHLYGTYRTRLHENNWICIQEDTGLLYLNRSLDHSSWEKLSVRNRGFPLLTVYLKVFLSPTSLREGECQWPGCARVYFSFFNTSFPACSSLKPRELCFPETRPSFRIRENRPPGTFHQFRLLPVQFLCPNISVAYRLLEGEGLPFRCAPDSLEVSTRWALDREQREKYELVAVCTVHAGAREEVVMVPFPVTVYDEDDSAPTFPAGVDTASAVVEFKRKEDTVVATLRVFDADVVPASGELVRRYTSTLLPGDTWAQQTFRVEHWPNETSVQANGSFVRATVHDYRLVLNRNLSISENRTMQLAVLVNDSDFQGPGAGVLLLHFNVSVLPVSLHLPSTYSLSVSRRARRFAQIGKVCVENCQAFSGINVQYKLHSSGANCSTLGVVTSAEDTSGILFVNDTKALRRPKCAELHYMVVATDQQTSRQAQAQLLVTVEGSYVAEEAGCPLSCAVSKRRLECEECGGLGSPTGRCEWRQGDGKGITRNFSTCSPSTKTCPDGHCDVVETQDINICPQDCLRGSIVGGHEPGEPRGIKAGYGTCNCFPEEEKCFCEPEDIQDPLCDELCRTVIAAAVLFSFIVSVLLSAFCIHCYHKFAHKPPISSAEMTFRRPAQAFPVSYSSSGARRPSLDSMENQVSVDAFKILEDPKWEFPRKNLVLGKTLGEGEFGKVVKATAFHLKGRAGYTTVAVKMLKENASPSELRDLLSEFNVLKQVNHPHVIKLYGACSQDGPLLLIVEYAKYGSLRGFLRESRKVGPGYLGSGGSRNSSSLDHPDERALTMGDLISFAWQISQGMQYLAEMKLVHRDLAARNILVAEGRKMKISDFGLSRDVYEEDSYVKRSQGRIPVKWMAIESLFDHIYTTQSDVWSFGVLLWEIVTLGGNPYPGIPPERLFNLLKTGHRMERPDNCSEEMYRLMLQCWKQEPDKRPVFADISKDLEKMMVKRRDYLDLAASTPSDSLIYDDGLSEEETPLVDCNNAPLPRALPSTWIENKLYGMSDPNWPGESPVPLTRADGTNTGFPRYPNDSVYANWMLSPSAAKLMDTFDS
Description: Inhibition of RET (unknown origin) at 1 uM relative to control

[4] = target: Tyrosine-protein kinase receptor UFO (Homo sapiens) (UniProt P30530); settings: 1 uM
Description: Inhibition of AXL (unknown origin) at 1 uM relative to control

[5] = target: T3, Proto-oncogene tyrosine-protein kinase receptor Ret; test: Binding affinity to RET (unknown origin)
Mus musculus [6] = test: Toxicity in BALB/c nude mouse xenografted with human HT-29 cells assessed as hematuria at 80 mg/kg/day administered qd measured up to day 21; assay type: organism-based; settings: in vivo
[7] = target: Serine/threonine-protein kinase Chk1 (Homo sapiens, UniProt O14757); test: Binding affinity to CHK1 (unknown origin)
[8] = target: Serine/threonine-protein kinase Chk1 (Homo sapiens) (UniProt O14757); test: Inhibition of CHK1 (unknown origin) at 1 uM relative to control
[9] = target: T2, ALK tyrosine kinase receptor; settings: 1 uM
Description: Inhibition of ALK (unknown origin) at 1 uM relative to control

[10] = target: T4, Macrophage colony-stimulating factor 1 receptor (Homo sapiens, UniProt P07333); test: Binding affinity to FMS (unknown origin)
T4 sequence (P07333 whole entry): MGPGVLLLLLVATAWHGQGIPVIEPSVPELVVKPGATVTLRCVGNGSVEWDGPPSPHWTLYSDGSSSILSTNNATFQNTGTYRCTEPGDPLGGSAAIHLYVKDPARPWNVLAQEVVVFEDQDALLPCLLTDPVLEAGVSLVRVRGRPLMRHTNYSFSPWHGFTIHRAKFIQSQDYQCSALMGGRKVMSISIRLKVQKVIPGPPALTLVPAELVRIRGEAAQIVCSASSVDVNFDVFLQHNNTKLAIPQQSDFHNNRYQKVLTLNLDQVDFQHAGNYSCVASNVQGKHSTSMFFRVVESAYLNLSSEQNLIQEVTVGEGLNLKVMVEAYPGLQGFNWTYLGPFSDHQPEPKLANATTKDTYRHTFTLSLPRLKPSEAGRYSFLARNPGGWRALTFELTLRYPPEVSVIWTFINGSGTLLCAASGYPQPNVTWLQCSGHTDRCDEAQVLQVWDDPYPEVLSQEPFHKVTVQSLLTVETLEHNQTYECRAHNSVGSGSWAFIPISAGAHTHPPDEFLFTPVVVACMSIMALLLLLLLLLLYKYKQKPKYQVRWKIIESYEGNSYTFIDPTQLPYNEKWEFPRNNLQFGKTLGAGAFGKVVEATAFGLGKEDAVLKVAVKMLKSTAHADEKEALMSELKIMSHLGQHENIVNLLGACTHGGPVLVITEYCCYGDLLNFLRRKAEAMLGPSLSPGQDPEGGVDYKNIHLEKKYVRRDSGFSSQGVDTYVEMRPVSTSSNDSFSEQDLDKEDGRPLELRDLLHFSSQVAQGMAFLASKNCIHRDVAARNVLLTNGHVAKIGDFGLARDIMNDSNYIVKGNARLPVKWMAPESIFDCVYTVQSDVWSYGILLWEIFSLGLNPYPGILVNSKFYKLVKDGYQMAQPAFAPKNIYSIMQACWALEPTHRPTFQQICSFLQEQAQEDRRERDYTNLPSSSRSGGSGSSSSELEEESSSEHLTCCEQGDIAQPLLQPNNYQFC

[11] = target: T5, Vascular endothelial growth factor receptor 2 (Homo sapiens, UniProt P35968); settings: 1 uM
T5 sequence (P35968 whole entry): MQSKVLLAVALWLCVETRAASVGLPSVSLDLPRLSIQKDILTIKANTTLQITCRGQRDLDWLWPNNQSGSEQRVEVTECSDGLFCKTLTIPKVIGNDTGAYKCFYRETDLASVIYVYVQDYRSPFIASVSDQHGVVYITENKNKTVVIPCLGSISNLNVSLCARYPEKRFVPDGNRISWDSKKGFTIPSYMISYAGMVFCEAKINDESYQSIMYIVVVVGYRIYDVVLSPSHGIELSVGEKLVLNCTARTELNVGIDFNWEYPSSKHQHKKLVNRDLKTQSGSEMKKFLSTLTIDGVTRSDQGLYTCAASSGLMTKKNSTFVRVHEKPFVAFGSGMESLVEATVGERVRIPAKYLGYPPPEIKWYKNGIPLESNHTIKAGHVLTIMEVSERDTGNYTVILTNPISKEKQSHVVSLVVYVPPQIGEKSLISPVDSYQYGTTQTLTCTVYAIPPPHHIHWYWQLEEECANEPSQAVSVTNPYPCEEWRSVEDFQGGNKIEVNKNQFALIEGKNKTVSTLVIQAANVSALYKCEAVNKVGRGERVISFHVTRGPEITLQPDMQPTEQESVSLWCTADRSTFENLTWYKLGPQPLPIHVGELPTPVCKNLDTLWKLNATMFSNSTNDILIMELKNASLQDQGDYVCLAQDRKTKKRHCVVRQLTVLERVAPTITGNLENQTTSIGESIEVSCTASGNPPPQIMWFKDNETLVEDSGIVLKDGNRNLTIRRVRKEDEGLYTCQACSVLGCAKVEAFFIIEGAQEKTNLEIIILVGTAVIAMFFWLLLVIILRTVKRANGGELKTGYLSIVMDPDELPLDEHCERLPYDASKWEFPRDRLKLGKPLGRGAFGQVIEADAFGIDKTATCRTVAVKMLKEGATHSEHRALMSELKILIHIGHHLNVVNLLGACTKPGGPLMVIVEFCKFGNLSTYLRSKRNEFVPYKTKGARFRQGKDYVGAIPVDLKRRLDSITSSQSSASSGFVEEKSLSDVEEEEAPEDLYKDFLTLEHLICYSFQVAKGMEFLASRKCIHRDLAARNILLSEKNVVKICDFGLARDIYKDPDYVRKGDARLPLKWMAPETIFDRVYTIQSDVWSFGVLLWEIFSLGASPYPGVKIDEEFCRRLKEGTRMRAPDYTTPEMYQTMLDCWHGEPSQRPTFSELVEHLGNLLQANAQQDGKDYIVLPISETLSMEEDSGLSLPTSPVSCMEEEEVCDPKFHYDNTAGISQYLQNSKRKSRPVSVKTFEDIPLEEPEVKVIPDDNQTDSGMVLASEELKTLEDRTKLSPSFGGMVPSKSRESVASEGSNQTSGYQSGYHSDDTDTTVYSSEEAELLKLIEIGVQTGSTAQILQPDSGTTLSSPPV
Description: Inhibition of VEGFR2 (unknown origin) at 1 uM relative to control

Mus musculus [12] = test: Toxicity in BALB/c nude mouse xenografted with human NCI-H460 cells assessed as bloody stool at 40 mg/kg/day administered qd; assay type: organism-based; settings: in vivo
Mus musculus [13] = test: Toxicity in BALB/c nude mouse xenografted with human NCI-H460 cells assessed as change in body weight at 40 mg/kg/day administered qd relative to control; assay type: organism-based; settings: in vivo
[14] = target: Receptor-type tyrosine-protein kinase FLT3 (Homo sapiens, UniProt P36888); test: Binding affinity to FLT3 (unknown origin)
[15] = target: Phosphorylase b kinase gamma catalytic chain, liver/testis isoform (Homo sapiens) (UniProt P15735); test: Inhibition of PHKgamma2 (unknown origin) at 1 uM relative to control
[16] = target: Tyrosine-protein kinase receptor UFO (Homo sapiens, UniProt P30530); test: Binding affinity to AXL (unknown origin)
NCI-H460 [17] = test: Antitumor activity against human NCI-H460 cells xenografted in BALB/c nude mouse assessed as tumor growth inhibition at 40 mg/kg/day administered qd measured up to day 21 relative to control; assay type: functional; settings: NCI-H460, 504 h, read-out: TGI
[18] = target: T6, Tyrosine-protein kinase Fyn (Homo sapiens, UniProt P06241); settings: 1 uM
Target sequence in this assay (P06241 2-537 limits assumed): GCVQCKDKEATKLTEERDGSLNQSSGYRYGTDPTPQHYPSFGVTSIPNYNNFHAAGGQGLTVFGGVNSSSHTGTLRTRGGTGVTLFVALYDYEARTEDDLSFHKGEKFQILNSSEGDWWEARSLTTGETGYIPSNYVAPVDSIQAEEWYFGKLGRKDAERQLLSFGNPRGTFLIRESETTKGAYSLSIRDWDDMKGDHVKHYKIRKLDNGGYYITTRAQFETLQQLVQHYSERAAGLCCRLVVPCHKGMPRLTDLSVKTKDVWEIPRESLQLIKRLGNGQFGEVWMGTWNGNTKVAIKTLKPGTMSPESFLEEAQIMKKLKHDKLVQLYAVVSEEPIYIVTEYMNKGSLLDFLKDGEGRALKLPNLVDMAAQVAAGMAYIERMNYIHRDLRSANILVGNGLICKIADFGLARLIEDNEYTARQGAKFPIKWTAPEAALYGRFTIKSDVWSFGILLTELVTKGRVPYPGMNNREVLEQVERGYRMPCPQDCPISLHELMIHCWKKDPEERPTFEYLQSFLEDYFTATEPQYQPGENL
Description: Inhibition of FYN (unknown origin) at 1 uM relative to control

[19] = target: T4, Macrophage colony-stimulating factor 1 receptor; test: Inhibition of FMS (unknown origin) at 1 uM relative to control
[20] = target: T6, Tyrosine-protein kinase Fyn; test: Binding affinity to FYN (unknown origin)
NCI-H460 [21] = test: Antiproliferative activity against human NCI-H460 cells after 72 hrs by MTT assay; assay type: functional, cell-based; settings: NCI-H460, 72 h
Aorta [22] = test: Antiangiogenic activity in Sprague-Dawley rat aortic ring at 0.2 ug/ml after 6 days by inverted microscopic analysis; assay type: functional, tissue-based
Focal adhesion kinase 1 = Focal adhesion kinase 1 (Homo sapiens, UniProt Q05397); test: Binding affinity to FAK (unknown origin)
Aorta [23] = test: Inhibition of micrangium generation in Sprague-Dawley rat aortic ring at 0.2 ug/ml after 6 days by inverted microscopic analysis; assay type: functional, tissue-based
[24] = target: Fibroblast growth factor receptor 1 (Homo sapiens, UniProt P11362); test: Binding affinity to FGFR1 (unknown origin)
[25] = Antiproliferative activity against human MV411 cells after 48 hrs by MTT assay; assay type: functional, cell-based; settings: MV4-11, 48 h
[26] = target: Mast/stem cell growth factor receptor Kit (Homo sapiens, UniProt P10721); test: Binding affinity to c-KIT (unknown origin)
[27] = target: Tyrosine-protein kinase ABL2 (Homo sapiens, UniProt P42684); test: Binding affinity to ARG (unknown origin)
[28] = target: Protein-tyrosine kinase 2-beta (Homo sapiens, UniProt Q14289); test: Binding affinity to PYK2 (unknown origin)
Mus musculus [29] = test: Toxicity in BALB/c nude mouse xenografted with human NCI-H460 cells assessed as severe weight loss at 40 mg/kg/day administered qd; assay type: organism-based; settings: in vivo
[30] = Antiproliferative activity against human LO2 cells after 72 hrs by MTT assay; assay type: cell-based; settings: L02, 72 h
[31] = target: T5, Vascular endothelial growth factor receptor 2; test: Binding affinity to VEGFR2 (unknown origin)
[32] = target: T7, Platelet-derived growth factor receptor beta (Homo sapiens, UniProt P09619); test: Binding affinity to PDGFR-beta (unknown origin)
T7 sequence (P09619 whole entry): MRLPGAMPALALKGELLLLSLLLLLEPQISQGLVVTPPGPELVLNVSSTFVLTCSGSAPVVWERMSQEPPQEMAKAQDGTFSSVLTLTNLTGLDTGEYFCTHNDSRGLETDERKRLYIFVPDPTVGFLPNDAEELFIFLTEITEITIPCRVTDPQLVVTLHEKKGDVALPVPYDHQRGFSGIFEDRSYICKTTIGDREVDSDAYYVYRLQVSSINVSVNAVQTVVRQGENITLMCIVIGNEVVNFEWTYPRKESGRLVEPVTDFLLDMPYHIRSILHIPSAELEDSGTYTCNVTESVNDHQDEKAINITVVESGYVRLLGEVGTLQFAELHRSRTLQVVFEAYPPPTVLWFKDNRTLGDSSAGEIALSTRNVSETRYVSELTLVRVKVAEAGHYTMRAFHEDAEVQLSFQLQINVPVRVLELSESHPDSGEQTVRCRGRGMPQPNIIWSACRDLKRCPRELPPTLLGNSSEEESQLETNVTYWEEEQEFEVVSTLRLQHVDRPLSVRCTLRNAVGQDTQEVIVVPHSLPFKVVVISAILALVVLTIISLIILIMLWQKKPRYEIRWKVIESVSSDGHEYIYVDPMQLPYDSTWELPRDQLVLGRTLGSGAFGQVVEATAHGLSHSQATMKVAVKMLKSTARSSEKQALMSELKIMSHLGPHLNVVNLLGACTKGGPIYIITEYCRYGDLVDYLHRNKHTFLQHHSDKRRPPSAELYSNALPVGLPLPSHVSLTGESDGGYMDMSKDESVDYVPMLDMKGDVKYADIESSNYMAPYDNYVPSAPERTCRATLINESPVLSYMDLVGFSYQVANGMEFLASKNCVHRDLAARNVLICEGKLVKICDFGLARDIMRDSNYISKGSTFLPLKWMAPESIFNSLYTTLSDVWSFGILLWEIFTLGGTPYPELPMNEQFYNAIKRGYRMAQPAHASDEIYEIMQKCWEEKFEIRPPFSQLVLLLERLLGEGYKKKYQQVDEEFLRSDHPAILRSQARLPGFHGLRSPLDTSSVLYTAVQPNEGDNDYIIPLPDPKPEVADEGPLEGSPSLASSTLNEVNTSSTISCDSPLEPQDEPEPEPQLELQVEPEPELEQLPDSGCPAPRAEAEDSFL

Mus musculus [33] = test: Toxicity in BALB/c nude mouse xenografted with human HT-29 cells assessed as change in body weight at 80 mg/kg/day administered qd relative to control; assay type: organism-based; settings: in vivo
[34] = Antiproliferative activity against human Bel7402 cells after 72 hrs by MTT assay; assay type: functional, cell-based; settings: Bel-7402, 72 h
HT-29 = test: Antitumor activity against human HT-29 cells xenografted in BALB/c nude mouse assessed as tumor growth inhibition at 80 mg/kg/day administered qd measured up to day 21 relative to control; assay type: functional; design: scale not given: the % may be the effect or the level left
[35] = target: T1, Fibroblast growth factor receptor 3; test: Binding affinity to FGFR3 (unknown origin)
[36] = target: Tyrosine-protein kinase ABL1 (Homo sapiens, UniProt P00519); test: Binding affinity to ABL (unknown origin)
[37] = target: Phosphorylase b kinase gamma catalytic chain, liver/testis isoform (Homo sapiens, UniProt P15735); test: Binding affinity to PHKgamma2 (unknown origin)
[38] = target: Voltage-gated inwardly rectifying potassium channel KCNH2 (Homo sapiens, UniProt Q12809); test: Inhibition of human ERG
[39] = target: Vascular endothelial growth factor receptor 3 (Homo sapiens, UniProt P35916); test: Binding affinity to VEGFR3 (unknown origin)
[40] = target: Vascular endothelial growth factor receptor 1 (Homo sapiens, UniProt P17948); test: Inhibition of VEGFR1 (unknown origin) at 1 uM relative to control
[41] = target: T7, Platelet-derived growth factor receptor beta; test: Inhibition of PDGFR-beta (unknown origin) at 1 uM relative to control
[42] = Solubility of the compound in water; assay type: physicochemical; settings: buffer
[43] = Antiproliferative activity against human HK2 cells after 72 hrs by MTT assay; assay type: cell-based; settings: HK-2, 72 h
Mus musculus [44] = test: Toxicity in BALB/c nude mouse xenografted with human HT-29 cells assessed as bloody stool at 80 mg/kg/day administered qd measured up to day 21; assay type: organism-based; settings: in vivo

Cc1[nH]c(/C=C2\C(=O)Nc3ccc(F)cc32)c(C)c1NC(=O)CCN1CCN(C)CC1
inhibition [1]: 91% | pIC50 (NCI-H526): 4.69 | pKi [2]: 7.02 | inhibition [3]: 99% | inhibition [4]: 95% | pKi [5]: 7.74 | Activity (Mus musculus [6]): Non-toxic | pKi [7]: 6.96 | inhibition [8]: 76% | inhibition [9]: 87% | pKi [10]: 6.64 | inhibition [11]: 99% | Activity (Mus musculus [12]): Non-toxic | Activity (Mus musculus [13]): 1.4% | pKi [14]: > 9.52 | inhibition [15]: 51% | pKi [16]: 7.20 | inhibition in vivo at 40 mg/kg/day (NCI-H460 [17]): 60.6% | inhibition [18]: 44% | inhibition [19]: 84% | pKi [20]: 5.74 | pIC50 (NCI-H460 [21]): 5.21 | inhibition (Aorta [22]): Active | pKi (Focal adhesion kinase 1): 6.28 | inhibition (Aorta [23]): Active | pKi [24]: 6.46 | pIC50 [25]: 8.10 | pKi [26]: 6.70 | pKi [27]: 6.74 | pKi [28]: 6.47 | Activity (Mus musculus [29]): Non-toxic | pIC50 [30]: 4.38 | pKi [31]: 8.42 | pKi [32]: 7.72 | Activity (Mus musculus [33]): 6.2% | pIC50 [34]: 4.83 | Activity (HT-29): 84.7% | pKi [35]: 7.05 | pKi [36]: 6.92 | pKi [37]: 6.08 | pIC50 [38]: 4.73 | pKi [39]: > 9.52 | inhibition [40]: 52% | inhibition [41]: 79% | solubility [42]: soluble | pIC50 [43]: 5.16 | Activity (Mus musculus [44]): Non-toxic
